Assay results taken from patent US6828450B2, “Triptycene analogs” (Kansas State University Research Foundation, priority 2000, dated 2004).
Where “and” joins values, the source holds several entries; their conditions need not be identical. Identical values can stand only once.

Assays:
L1210 cells [1] = assay: cells; conditions: for IC50: read-out: IC50 (concentration inhibiting by 50% the viability of L1210 leukemic cells), day 4, Table 2 series; for inhibitory effect on L1210 cell viability: 256 nM, 4 days
Description: (§1) FIG. 1. […] For tumor cell growth and viability, L1210 cells were respectively seeded in triplicate at initial densities of 1×10^4 and 1.11×10^4 cells/0.5 ml/well in RPMI 1640 medium containing 7.5% FCS and penicillin (100 IU/ml)-streptomycin (100 μg/ml), and grown for 4 days in the presence or absence (control) of 256 nM concentrations of the indicated compounds in a humidified incubator at 37° C. with 5% CO2 in air. Cell density was monitored using a Coulter counter. […] The ability of viable cells/0.5 ml to bioreduce 0.1 ml of MTS:PMS (20:1) reagent over a 3-h incubation period at 37° C. was assessed by measuring the absorbamce of the water-soluble formazan products at A490 nm.
FIG. 4. […] Cells were seeded in triplicate at initial densities of 100,000 or 11,100 cells/0.5 ml/well and respectively incubated for 2 or 4 days in the presence or absence (control) of the indicated concentrations of drugs, which are plotted on a logarithmic scale. The ability of viable cells/0.5 ml to bioreduce 0.1 ml of MTS:PMS (20:1) reagent over a 3-h incubation period was assessed as described in FIG. 1.
(§2) TT0 was purchased from Aldrich (Milwaukee, Wis.). All solutions of synthetic TTs and tricyclic pyrone H10, vincristine (VCR; a gift from Lilly Researeh Laboratories, Indianapolis, Ind.) and camptothecin (CPT; from Sigma Chemical Co., St Louis, Mo.) were dissolved and diluted in dimethyl sulfoxide (DMSO), whereas daunomycin (DAU) (from Sigma) solutions were prepared in 0.1 M potassium phosphate buffer, pH 7.4, containing 0.9% NaCl. Suspension cultures of murine L1210 lymphocytic leukemia cells (American Type Culture Collection, Rockville, Md.) were maintained in continuous exponential growth by twice-a-week passage in RPMI 1640 medium supplemented with 7.5% fortified bovine calf serum (FCS; HyClone Laboratories, Logan, Utah) and penicillin (100 IU/ml)-streptomycin (100 μg/ml), and incubated in the presence or absence of drugs at 37° C. in a humidified atmosphere containing 5% CO2. […] Control cells incubated in the absence of drugs were similarly treated with vehicle only and, in every experiment, all incubates received the same volume of solvent. For drug removal, incubates were spun at 200×g for 10 min, drug-containing supernatants were discarded, and intact cells were washed thrice with 1 ml of the above RPMI 1640 culture medium and resuspended in 0.5 ml of fresh medium for further incubation.
L1210, HL-60-S, HL60-RV and HL-60-R8 cells suspended in FCS-containing RPMI 1640 medium were grown in 48-well Costar cell culture plates for up to 4 days in the presence or absence of drugs to evaluate drug cytotoxicity.

L1210 cells [2] = assay: Mitotic index of L1210 cells; format: cell-based, murine; conditions: 24-h treatment; 0.2 μM VCR, 1 μM H10 (FIG. 18)
Description: FIG. 18. Effects of the novel TT analog TT2 and DAU on the mitotic index of L1210 cells in vitro. […] Cells (10^6/0.5 ml of RPMI 1640 medium) were incubated in triplicate for 24 h at 37° C. in the presence or absence (control) of 0.256, 0.64, 1.6 and 4 μM TT2, 0.256, 0.64 and 1.6 μM DAU, 0.2 μM VCR or 1 μM H10. After fixation with MeOH:acetic acid (3:1) and staining with 0.1% crystal violet, about 500 cells/slide were scored for mitotic figures and the mitotic index was expressed as the % of mitotic cells in drug-treated cultures divided by the % of mitotic cells in non-treated controls. The mean % of mitotic cells in control at 24 h was 1.86±0.43%.
L1210 cells (about 1×10^6/0.5 ml of FCS-containing RPMI 1640 medium) were incubated in triplicate for 24 h at 37° C. in the presence or absence of TTs or known antimitotic drugs, and collected by centrifugation at 200×g for 10 min to determine their mitotic index. For hypotonic treatment, cells were resuspended in 1 ml of 75 mM KCl for 20 min at 4° C. After fixation in 1 ml of MeOH:acetic acid (3:1), the final cell pellets were collected by centrifugation, resuspended in 75 μl of MeOH:acetic acid (3:1), dispensed onto glass slides, air dried, and stained by spreading 40 μl of 0.1% crystal violet under a coverslip. The % of cells in mitosis was determined microscopically by counting 500 cells/slides. The mitotic index was calculated as the % of mitotic cells in drug-treated cultures divided by the % of mitotic cells in non-treated controls.

L1210 cells [3] = assay: DNA cleavage (intact chromatin precipitation) in L1210 cells; format: cell-based, murine
Description: FIG. 19. Comparison of the concentration-dependent effects of novel TT analogs and known DNA-damaging anticancer drugs on DNA cleavage in L1210 cells in vitro. […] After lysing the cells in HLB containing 0.2% Triton X-100, the detergent-soluble DNA fragments present in the supernatants and the intact chromatin DNA remaining in the pellets were separated by centrifugation and their radioactivity estimated by LSC. Results are expressed as [cpm in supernatant/cpm in supernatant+pellet]×100 at 24 h. For untreated controls (5.3±0.6% DNA fragmentation; striped area), the supernatant is 741±79 cpm and the pellet is 13,293±1,446 cpm.
FIG. 20. Comparison of the abilities of novel TT analogs to induce DNA cleavage in L1210 cells in vitro. Cells containing prelabeled DNA were incubated at 37° C. for 24 h in the presence or absence (control) of 7 μM concentrations of the indicated compounds. The protocol of the experiment and the determination of the results were identical to those of FIG. 12.
FIG. 22. Irreversibility of the effects of novel TT analogs and known DNA-damaging anticancer drugs on DNA cleavage in L1210 cells in vitro. Cells containing prelabeled DNA were incubated at 37° C. for various periods of time in the presence or absence (control) of 10 μM TT1 or TT2 and 1.6 μM DAU or CPT. The protocol of the experiment and the determination of the results at 24 h were identical to those of FIG. 19, except that the drugs were either maintained in the medium for the whole 24-h period of incubation (open) or removed after the first 3 (striped) and 8 h (closed). After spinning and washing the appropriate samples to remove the drugs, cells were resuspended in 0.5 ml of fresh medium to complete the 24-h period of incubation in the absence of drugs. Vehicle-treated controls were similarly spun and washed at 3 and 8 h. Bars: means±SD (n=3).
Drug-induced DNA cleavage was determined by intact chromatin precipitation, using L1210, HL-60-S, HL-60-RV and HL-60-R8 cells which were prelabeled with 1 μCi of ^3H-thymidine for 2 h at 37° C., washed with 3×1 ml of ice-cold PBS, collected by centrifugation, and resuspended in fresh FCS-containing RPMI 1640 medium at a density of about 1×10^6 cells/0.5 ml for L1210 and 0.5×10^6 cells/0.5 ml for HL cells. Except when otherwise specified, such cells containing prelabeled DNA were then exposed for 24 h to TTs and drugs known to induce DNA fragmentation. After centrifugation at 200×g for 10 min to discard the drugs and wash the cells, the intact cell pellets were lysed for 30 min in 0.5 ml of HLB, centrifuged at 12,000×g for 30 min to collect the supernatants, and resuspended in 0.5 ml of HLB. After another similar centrifugation, the radioactivities in the pooled supernatants (detergent-soluble low molecular weight DNA fragments) and the pellet (intact chromatin DNA) were determined by LSC: % DNA fragmentation=[cpm in supernatant/cpm in supernatant+pellet]×100. Before being counted in 6 ml of Bio-Safe NA, the intact pelleted chromatin was incubated for 2 h at 60° C. in the presence of 0.6 ml of NCS tissue solubilizer (Amersham).

L1210 cells [4] = assay: L1210 tumor cell proliferation assay (Coulter counter); conditions: for inhibitory effect on L1210 cell growth: 256 nM, 4 days
Description: as §1
FIG. 3. […] The protocol of the experiment was identical to that of FIG. 1. […] Drug concentrations are plotted on a logarithmic scale.
as §2
For tumor cell growth, L1210 cells were resuspended in fresh FCS-containing RPMI 1640 medium, plated at an initial density of 1×10^4 cells/0.5 ml, and incubated in 48-well Costar cell culture plates (Costar, Cambridge, Mass.). Except when otherwise specified, cells were grown for 4 days in the presence or absence of drugs and their density was monitored every 24 h using a Coulter counter (Coulter Electronics, Luton Beds, UK).

[5] = system: Plasmodium falciparum 3D7; assay: Antimalarial activity, inhibition of Plasmodium falciparum 3D7; format: cell-based; conditions: malaria strain 3D7
[6] = biological target: Malaria protease plasmepsin II (Plasmodium falciparum, UniProt P46925); assay: Inhibition of malaria protease plasmepsin II; format: biochemical
Chain of Malaria protease plasmepsin II (P46925 125-453): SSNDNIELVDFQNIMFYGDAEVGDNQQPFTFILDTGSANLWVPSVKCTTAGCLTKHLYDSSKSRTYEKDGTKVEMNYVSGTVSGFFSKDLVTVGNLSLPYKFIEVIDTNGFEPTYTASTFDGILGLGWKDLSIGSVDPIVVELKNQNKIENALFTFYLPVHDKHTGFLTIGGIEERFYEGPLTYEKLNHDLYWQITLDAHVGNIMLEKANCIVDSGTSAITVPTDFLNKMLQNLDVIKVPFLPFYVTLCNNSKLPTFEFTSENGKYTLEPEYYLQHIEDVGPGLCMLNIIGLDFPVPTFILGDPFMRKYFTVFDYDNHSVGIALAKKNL

[7] = Water solubility (stated in words); format: physicochemical

COC1=C(Br)C(=O)C2=C(C1=O)C1C3=C(C(=O)C=CC3=O)C2c2ccccc21 (stereo not drawn) [TT13, 2-Bromo-3-methoxy-9,10-dihydro-9,10-[1′,2′]benzenoanthracene-1,4,5,8-tetraone]
IC50 (L1210 cells [1]): 291 nM

CC[C@]1(O)C[C@H]2CN(CCc3c([nH]c4ccccc34)[C@@](C(=O)OC)(c3cc4c(cc3OC)N(C=O)[C@H]3[C@@](O)(C(=O)OC)[C@H](OC(C)=O)[C@]5(CC)C=CCN6CC[C@]43[C@@H]65)C2)C1 [VCR, vincristine, reference compound]
increase in the mitotic index (L1210 cells [2]): 16 fold

CC[C@@]1(O)C(=O)OCc2c1cc1n(c2=O)Cc2cc3ccccc3nc2-1 [CPT, camptothecin, reference compound]
DNA cleavage (% DNA fragmentation) (L1210 cells [3]; 1.6 μM, 24 h): 57%
DNA fragmentation at 24 h, drug maintained or removed (L1210 cells [3]; 1.6 μM, maintained or removed after 3 or 8 h): 51-58%
Emax (L1210 cells [3]; Mus musculus, L1210, concentrations of CPT higher than 1.6 μM, 24 h, read-out: DNA cleavage, plateau of maximal stimulation): 60 to 70%

c1ccc2c(c1)C1c3ccccc3C2c2ccccc21 [TT0, triptycene]
activity against macromolecule synthesis and growth of L1210 cells (L1210 cells [4]; in vitro): inactive

COC(=O)C1=CC(=O)[C@H]2C3c4ccccc4C(c4c(OC)ccc(OC)c43)[C@H]2C1=O (relative stereo) [TT10, (4aS*,9aR*)-5,8-Dimethoxy-2-methoxycarbonyl-4a,9,9a,10-tetrahydro-9,10-[1′,2′]benzenoanthracene-1,4-dione]
inhibitory effect on L1210 cell growth (L1210 cells [4]): weak
inhibitory effect on L1210 cell viability (L1210 cells [1]): weak

COC(=O)[C@@]12C(=O)C=CC(=O)[C@@H]1C1c3ccccc3C2c2c(OC)ccc(OC)c21 (relative stereo) [TT11, (4aR*,9aR*)-5,8-Dimethoxy-4a-methoxycarbonyl-9,9a,10-trihydro-9,10-[1′,2′]benzenoanthracene-1,4-dione]
inhibitory effect on L1210 cell growth (L1210 cells [4]): marginal
inhibitory effect on L1210 cell viability (L1210 cells [1]): marginal
DNA cleavage (% DNA fragmentation) (L1210 cells [3]; 7 μM, 24 h, control 5%): 7%

CNC1=C(Br)C(=O)C2=C(C1=O)C1C3=C(C(=O)C=CC3=O)C2c2ccccc21 (stereo not drawn) [TT14, 2-Bromo-3-(methylamino)-9,10-dihydro-9,10-[1′,2′]benzenoanthracene-1,4,5,8-tetraone]
IC50 (L1210 cells [1]): 430 nM
IC50 [5]: 4700 nM
IC50 [6]: 9700 nM

O=C(O)CCNC1=C(O)C(=O)C2=C(C1=O)C1C3=C(C(=O)C=CC3=O)C2c2ccccc21 (stereo not drawn) [TT21]
water solubility [7]: water soluble

CCOC(=O)CCNC1=C(Br)C(=O)C2=C(C1=O)C1C3=C(C(=O)C=CC3=O)C2c2ccccc21 (stereo not drawn) [TT17, 2-Bromo-3-[2-(ethoxycarbonyl)ethylamino]-9,10-dihydro-9,10-[1′,2′]benzenoanthracene-1,4,5,8-tetraone]
IC50 (L1210 cells [1]): 240 nM

CC(C)c1nc(CN(C)C(=O)N[C@H](C(=O)N[C@@H](Cc2ccccc2)C[C@H](O)[C@H](Cc2ccccc2)NC(=O)OCc2cncs2)C(C)C)cs1 [ritonavir, reference compound]
IC50 ([5]; Plasmodium falciparum): 9700 nM

9,10-Dihydro-9,10-[1′,2′]benzenoanthracene-1,4,5,8-tetraone [TT1]
DNA fragmentation at 24 h after short exposure (L1210 cells [3]; 10 μM, drug removed after 3 and 8 h): 36-45%
DNA cleavage (% DNA fragmentation) (L1210 cells [3]; 10 μM, whole 24 h): 45% and 40%

CC(C)(C)OC(=O)CCNC1=C(Br)C(=O)C2=C(C1=O)C1C3=C(C(=O)C=CC3=O)C2c2ccccc21 (stereo not drawn) [Compound 12, 2-Bromo-3-[2-(t-butoxycarbonyl)ethylamino]-9,10-dihydro-9,10-[1,2]benzenoanthracene-1,4,5,8-tetraone]
IC50 (L1210 cells [1]): 310 nM

O=C(O)CCNC1=C(Br)C(=O)C2=C(C1=O)C1C3=C(C(=O)C=CC3=O)C2c2ccccc21 (stereo not drawn) [Compound 13, N-(2-Bromo-9,10-dihydro-1,4,5,8-tetraoxo-9,10-[1,2]benzenoanthracene-3-yl)-3-aminopropanoic acid]
IC50 (L1210 cells [1]): 1480 nM
